The source made the active and inactive calls. How the calls were made is not given here.
System: CCRIS mutagenicity, Ames/micronucleus/aberration tests
Experiment: CCRIS mutagenicity studies
[1] = Test System: AMES SALMONELLA TYPHIMURIUM, Strain/Indicator: TA98, Metabolic Activation: NONE, Method: PREINCUBATION
[2] = Test System: AMES SALMONELLA TYPHIMURIUM, Strain/Indicator: TA100, Metabolic Activation: NONE, Method: PREINCUBATION
[3] = Test System: AMES SALMONELLA TYPHIMURIUM, Strain/Indicator: TA1535, Metabolic Activation: NONE, Method: PREINCUBATION
[4] = Test System: AMES SALMONELLA TYPHIMURIUM, Strain/Indicator: TA1537, Metabolic Activation: NONE, Method: PREINCUBATION
[5] = Test System: AMES SALMONELLA TYPHIMURIUM, Strain/Indicator: TA1538, Metabolic Activation: NONE, Method: PREINCUBATION
[6] = Test System: E. COLI, Strain/Indicator: WP2 UVRA, Metabolic Activation: NONE, Method: PREINCUBATION
[7] = Test System: AMES SALMONELLA TYPHIMURIUM, Strain/Indicator: TA98, Metabolic Activation: NONE, Method: STANDARD PLATE
[8] = Test System: AMES SALMONELLA TYPHIMURIUM, Strain/Indicator: TA98, Metabolic Activation: RAT, LIVER, S-9, AROCLOR 1254, Method: STANDARD PLATE
[9] = Test System: AMES SALMONELLA TYPHIMURIUM, Strain/Indicator: TA100, Metabolic Activation: NONE, Method: STANDARD PLATE
[10] = Test System: AMES SALMONELLA TYPHIMURIUM, Strain/Indicator: TA100, Metabolic Activation: RAT, LIVER, S-9, AROCLOR 1254, Method: STANDARD PLATE
[11] = Test System: AMES SALMONELLA TYPHIMURIUM, Strain/Indicator: TA1535, Metabolic Activation: NONE, Method: STANDARD PLATE
[12] = Test System: AMES SALMONELLA TYPHIMURIUM, Strain/Indicator: TA1537, Metabolic Activation: NONE, Method: STANDARD PLATE
[13] = Test System: AMES SALMONELLA TYPHIMURIUM, Strain/Indicator: TA1538, Metabolic Activation: NONE, Method: STANDARD PLATE
[14] = Test System: AMES SALMONELLA TYPHIMURIUM, Strain/Indicator: TA1538, Metabolic Activation: RAT, LIVER, S-9, AROCLOR 1254, Method: STANDARD PLATE

CC1(C)SSC[C@@H](C(=O)O)NC1=O
mutagenic call [1]: inactive; negative
mutagenic call [2]: inactive; negative
mutagenic call [3]: inactive; negative
mutagenic call [4]: inactive; negative
mutagenic call [5]: inactive; negative
mutagenic call (Test System: E. COLI, Strain/Indicator: WP2, Metabolic Activation: NONE, Method: PREINCUBATION): inactive; negative
mutagenic call [6]: inactive; negative

C[C@]12CCC(=O)C=C1[C@@H]1C[C@@H]1[C@H]1[C@@H]3[C@@H]4C[C@@H]4[C@@]4(CCC(=O)O4)[C@@]3(C)CC[C@@H]12
mutagenic call (End Point: IN VITRO CHROMOSOMAL ABERRATIONS, Test System: HUMAN PERIPHERAL LYMPHOCYTES, Metabolic Activation: NONE): inactive; negative
mutagenic call (End Point: IN VITRO CHROMOSOMAL ABERRATIONS, Test System: HUMAN PERIPHERAL LYMPHOCYTES, Metabolic Activation: RAT, LIVER, S-9, AROCLOR 1254): inactive; negative
mutagenic call (End Point: IN VIVO MICRONUCLEUS, Test System: BONE MARROW POLYCHROMATIC ERYTHROCYTES, Species: MOUSE, Strain/Sex: NMRI/MALE, FEMALE, Route: INTRAGASTRIC): inactive; negative
mutagenic call [1]: inactive; negative
mutagenic call [7]: inactive; negative
mutagenic call (Test System: AMES SALMONELLA TYPHIMURIUM, Strain/Indicator: TA98, Metabolic Activation: RAT, LIVER, S-9, AROCLOR 1254, Method: PREINCUBATION): inactive; negative
mutagenic call [8]: inactive; negative
mutagenic call [2]: inactive; negative
mutagenic call [9]: inactive; negative
mutagenic call (Test System: AMES SALMONELLA TYPHIMURIUM, Strain/Indicator: TA100, Metabolic Activation: RAT, LIVER, S-9, AROCLOR 1254, Method: PREINCUBATION): inactive; negative
mutagenic call [10]: inactive; negative
mutagenic call [3]: inactive; negative
mutagenic call [11]: inactive; negative
mutagenic call (Test System: AMES SALMONELLA TYPHIMURIUM, Strain/Indicator: TA1535, Metabolic Activation: RAT, LIVER, S-9, AROCLOR 1254, Method: PREINCUBATION): inactive; negative
mutagenic call (Test System: AMES SALMONELLA TYPHIMURIUM, Strain/Indicator: TA1535, Metabolic Activation: RAT, LIVER, S-9, AROCLOR 1254, Method: STANDARD PLATE): inactive; negative
mutagenic call [4]: inactive; negative
mutagenic call [12]: inactive; negative
mutagenic call (Test System: AMES SALMONELLA TYPHIMURIUM, Strain/Indicator: TA1537, Metabolic Activation: RAT, LIVER, S-9, AROCLOR 1254, Method: PREINCUBATION): inactive; negative
mutagenic call (Test System: AMES SALMONELLA TYPHIMURIUM, Strain/Indicator: TA1537, Metabolic Activation: RAT, LIVER, S-9, AROCLOR 1254, Method: STANDARD PLATE): inactive; negative
mutagenic call [5]: inactive; negative
mutagenic call [13]: inactive; negative
mutagenic call (Test System: AMES SALMONELLA TYPHIMURIUM, Strain/Indicator: TA1538, Metabolic Activation: RAT, LIVER, S-9, AROCLOR 1254, Method: PREINCUBATION): inactive; negative
mutagenic call [14]: inactive; negative
mutagenic call (Test System: CHINESE HAMSTER V-79, Strain/Indicator: V-79 (HGPRT)/6-THIOGUANINE, Metabolic Activation: NONE): inactive; negative
mutagenic call (Test System: CHINESE HAMSTER V-79, Strain/Indicator: V-79 (HGPRT)/6-THIOGUANINE, Metabolic Activation: RAT, LIVER, S-9, AROCLOR 1254): inactive; negative

CCN(CC)c1ccc(N=Nc2ccc(N=Nc3c(S(=O)(=O)O)cc4ccc(N)cc4c3O)c(OCCO)c2)cc1
mutagenic call [7]: inactive; negative
mutagenic call [8]: active; positive
mutagenic call [9]: inactive; negative
mutagenic call [10]: inactive; negative
mutagenic call [13]: inactive; negative
mutagenic call [14]: active; positive

ClCCNCCCNc1c2ccccc2nc2ccccc12
mutagenic call [7]: active; positive
mutagenic call [9]: active; positive
mutagenic call [11]: active; positive
mutagenic call (Test System: AMES SALMONELLA TYPHIMURIUM, Strain/Indicator: TA1536, Metabolic Activation: NONE, Method: STANDARD PLATE): active; positive
mutagenic call [12]: active; positive
mutagenic call [13]: active; positive

CN(C)S(=O)(=O)N(SC(F)(Cl)Cl)c1ccccc1
mutagenic call (Test System: AMES SALMONELLA TYPHIMURIUM, Strain/Indicator: TA102, Metabolic Activation: NONE, Method: STANDARD PLATE): inactive; negative
mutagenic call (Test System: AMES SALMONELLA TYPHIMURIUM, Strain/Indicator: TA102, Metabolic Activation: RAT, LIVER, S-9, PHENOBARBITAL, Method: STANDARD PLATE): inactive; negative
mutagenic call (Test System: AMES SALMONELLA TYPHIMURIUM, Strain/Indicator: TA104, Metabolic Activation: NONE, Method: STANDARD PLATE): inactive; negative
mutagenic call (Test System: AMES SALMONELLA TYPHIMURIUM, Strain/Indicator: TA104, Metabolic Activation: RAT, LIVER, S-9, PHENOBARBITAL, Method: STANDARD PLATE): inactive; negative
mutagenic call (Test System: E. COLI, Strain/Indicator: WP2HCR, Metabolic Activation: NONE, Method: STANDARD PLATE): active; positive
mutagenic call (Test System: E. COLI, Strain/Indicator: WP2HCR, Metabolic Activation: S-9 MIX, Method: STANDARD PLATE): inactive; negative

C=CCN(CC=C)c1cc(NC(C)=O)c(N=Nc2c(Br)cc([N+](=O)[O-])cc2[N+](=O)[O-])cc1OC
mutagenic call [7]: inactive; negative
mutagenic call [8]: active; positive
mutagenic call (Test System: AMES SALMONELLA TYPHIMURIUM, Strain/Indicator: YG1041, Metabolic Activation: NONE, Method: STANDARD PLATE): active; positive
mutagenic call (Test System: AMES SALMONELLA TYPHIMURIUM, Strain/Indicator: YG1041, Metabolic Activation: RAT, LIVER, S-9, AROCLOR 1254, Method: STANDARD PLATE): active; positive

CCOC(=O)/C=C\C(=O)OCC
mutagenic call (Test System: MOUSE LYMPHOMA, Strain/Indicator: L5178Y (TK+/TK-), Metabolic Activation: NONE, Method: SUSPENSION/PLATE): active; positive

Cc1oc(=O)oc1CN1CCN(c2cc3c(cc2F)c(=O)c(C(=O)O)c2n3C(C)S2)CC1 (stereo not given)
mutagenic call [1]: inactive; negative
mutagenic call (Test System: AMES SALMONELLA TYPHIMURIUM, Strain/Indicator: TA98, Metabolic Activation: RAT, LIVER, S-9, PHENOBARBITAL AND 5,6-BENZOFLAVONE, Method: PREINCUBATION): inactive; negative
mutagenic call [2]: inactive; negative
mutagenic call (Test System: AMES SALMONELLA TYPHIMURIUM, Strain/Indicator: TA100, Metabolic Activation: RAT, LIVER, S-9, PHENOBARBITAL AND 5,6-BENZOFLAVONE, Method: PREINCUBATION): inactive; negative
mutagenic call [3]: inactive; negative
mutagenic call (Test System: AMES SALMONELLA TYPHIMURIUM, Strain/Indicator: TA1535, Metabolic Activation: RAT, LIVER, S-9, PHENOBARBITAL AND 5,6-BENZOFLAVONE, Method: PREINCUBATION): inactive; negative
mutagenic call [4]: inactive; negative
mutagenic call (Test System: AMES SALMONELLA TYPHIMURIUM, Strain/Indicator: TA1537, Metabolic Activation: RAT, LIVER, S-9, PHENOBARBITAL AND 5,6-BENZOFLAVONE, Method: PREINCUBATION): inactive; negative
mutagenic call [6]: inactive; negative
mutagenic call (Test System: E. COLI, Strain/Indicator: WP2 UVRA, Metabolic Activation: RAT, LIVER, S-9, PHENOBARBITAL AND 5,6-BENZOFLAVONE, Method: PREINCUBATION): inactive; negative

Reference: PubChem BioAssay AID1259407 (Chemical Carcinogenesis Research Information System (CCRIS), 2018)
